Data taken from patent US7115642B2, “Substituted diphenyl isoxazoles, pyrazoles and oxadiazoles useful for treating HCV infection” (priority 2003, dated 2006).

System: HCV replicon (5-2 Luc replicon-comprising cells)
Test: HCV replicon assay (luciferase)
Assay type: cell-based, Hepatitis C virus
Settings: 5-2 Luc replicon cells, luciferase readout; read-out: Replicon IC50
Text: In one embodiment, the inhibitory activity of the compounds can be confirmed in a replicon assay that assesses the ability of a test compound to block or inhibit HCV replication in replicon cells. One example of a suitable replicon assay is the liver cell-line Huh 7-based replicon assay described in Lohmann et al., 1999, Science 285:110–113. A specific example of this replicon assay which utilizes luciferase translation is provided in the Examples Section. In one embodiment of this assay, the amount of test compound that yields a 50% reduction in translation as compared to a control cell (IC50) may be determined.
The inhibitory activity of certain exemplary compounds of the invention was confirmed using an HCV replicon assay. The HCV replicon can include such features as the HCV 5′ untranslated region including the HCV IRES, the HCV 3′ untranslated region, selected HCV genes encoding HCV polypeptides, selectable markers, and a reporter gene such as luciferase, GFP, etc. In the assay, actively dividing 5-2 Luc replicon-comprising cells (obtained from Ralf Bartenschlager; see Lohmann et al., 1999, Science 285:110–113) were seeded at a density of between about 5,000 and 7,500 cells/well onto 96 well plates (about 90 μl of cells per well) and incubated at 37° C. and 5% CO2 for 24 hours. Then, the test compound (in a volume of about 10 μl) was added to the wells at various concentrations and the cells were incubated for an additional 24 hours before luciferase assay. Briefly, the Bright-Glo reagent was diluted 1:1 with PBS and 100 μl of diluted reagent was added to each well. After 5 min of incubation at room temperature, luciferin emission was quantified with a luminometer. In this assay, the amount of test compound that yielded a 50% reduction in luciferase activity (IC50) was determined.
In TABLE 1, a value of “+” indicates an IC50 of 10 μM or less in the specified assay; a value of “−” indicates an IC50 of greater than 10 μM in the specified assay.

| Compound | IC50 [µM] |
| --- | --- |
| O=C(Nc1cccc(-c2cc(-c3c(Cl)cccc3N3CCC(NS(=O)(=O)c4ccccc4)C3)no2)c1)C(Cl)Cl (centres unmarked) [Compound 681] | < 10 |
| O=C(Nc1cccc(-c2cc(-c3c(Cl)cccc3N3CCc4ccccc4C3)no2)c1)C(Cl)Cl [Compound 636] | < 10 |
| O=C(Nc1cccc(-c2cc(-c3c(Cl)cccc3OCCC3CCN(C(=O)c4ccccn4)CC3)no2)c1)C(Cl)Cl [Compound 646] | < 10 |
| O=C(Nc1cccc(-c2cc(-c3c(Cl)cccc3OCCC3CCNCC3)no2)c1)C(Cl)Cl [Compound 640] | < 10 |
| O=C(Nc1cccc(-c2cc(-c3c(Cl)cccc3Oc3cccnc3)no2)c1)C(Cl)Cl [Compound 559] | < 10 |
| N#CC1(c2ccccc2)CCN(c2cccc(Cl)c2-c2cc(-c3cccc(NC(=O)C(Cl)Cl)c3)on2)CC1 [Compound 618] | < 10 |
| CC(C)(C)OC(=O)NC(Cc1ccccc1)C(=O)N1CCN(c2cccc(Cl)c2-c2cc(-c3cccc(NC(=O)C(Cl)Cl)c3)on2)CC1 (centres unmarked) [Compound 532] | < 10 |
| O=C(Nc1cccc(-c2cc(-c3c(Cl)cccc3N3CCN(S(=O)(=O)C(F)(F)F)CC3)no2)c1)C(Cl)Cl [Compound 567] | < 10 |
| COc1cccc(N2CCN(c3cccc(Cl)c3-c3cc(-c4cccc(NC(=O)C(Cl)Cl)c4)on3)CC2)c1 [Compound 524] | < 10 |
| O=C(Nc1cccc(-c2cc(-c3c(Cl)cccc3NS(=O)(=O)c3ccc(Cl)cc3)no2)c1)C(Cl)Cl [Compound 679] | < 10 |
| O=C(Nc1cccc(-c2cc(-c3c(Cl)cccc3N3CCN(c4ncccc4C(F)(F)F)CC3)no2)c1)C(Cl)Cl [Compound 538] | < 10 |
| O=C(Nc1cccc(-c2cc(-c3c(Cl)cccc3N3CCC(c4ccccc4)CC3)no2)c1)C(Cl)Cl [Compound 638] | < 10 |
| O=C(Nc1cccc(-c2cc(-c3c(Cl)cccc3OC3CCNC3)no2)c1)C(Cl)Cl (centres unmarked) [Compound 593] | < 10 |
| CCNC(=O)Oc1cccc(Cl)c1-c1cc(-c2cccc(NC(=O)C(Cl)Cl)c2)on1 [Compound 600] | < 10 |
| CN(C)CCN(C)c1cccc(Cl)c1-c1cc(-c2cccc(NC(=O)C(Cl)Cl)c2)on1 [Compound 131, 2-Dichloro-N-[3-[3-[2-chloro-6-(N,N-dimethylethylene-N′-methylamino)phenyl]-5-isoxazolyl]-phenyl]Acetamide] | < 10 |
| CN(C)C(=O)CN1CCN(c2cccc(Cl)c2-c2cc(-c3cccc(NC(=O)C(Cl)Cl)c3)on2)CC1 [Compound 628] | < 10 |
| CN(C)S(=O)(=O)N1CCN(c2cccc(Cl)c2-c2cc(-c3cccc(NC(=O)C(Cl)Cl)c3)on2)CC1 [Compound 540] | < 10 |
| O=C(Nc1cccc(-c2cc(-c3c(Cl)cccc3N3CCC4(CC3)OCCO4)no2)c1)C(Cl)Cl [Compound 615] | < 10 |
| CC(=O)N1CCC(COc2cccc(Cl)c2-c2cc(-c3cccc(NC(=O)C(Cl)Cl)c3)on2)CC1 [Compound 634] | < 10 |
| CCNC(=O)N1CCC(Oc2cccc(Cl)c2-c2cc(-c3cccc(NC(=O)C(Cl)Cl)c3)on2)CC1 [Compound 578] | < 10 |
| N#Cc1cccc(C(=O)N2CCN(c3cccc(Cl)c3-c3cc(-c4cccc(NC(=O)C(Cl)Cl)c4)on3)CC2)c1 [Compound 663] | < 10 |
| O=C(Nc1cccc(-c2cc(-c3c(Cl)cccc3N3CCN(c4ncccn4)CC3)no2)c1)C(Cl)Cl [Compound 517] | < 10 |
| O=C(Nc1cccc(-c2cc(-c3c(Cl)cc(OCCCN4CCOCC4)cc3Cl)no2)c1)C(Cl)Cl [Compound 73, 2,2-Dichloro-N-[3-[3-[2,6-dichloro-4-(N-morpholinopropyleneoxy)phenyl]-5-isoxazolyl]-phenyl]Acetamide] | < 10 |
| O=C(Nc1cccc(-c2cc(-c3c(Cl)cccc3I)no2)c1)C(Cl)Cl [Compound 677] | < 10 |

| Compound | IC50 [µM] |
| --- | --- |
| CCNC(=O)N1CCC(Oc2cccc(Cl)c2-c2cc(-c3cccc(NC(=O)C(Cl)Cl)c3)on2)C1 (centres unmarked) [Compound 597] | < 10 |
| CN(c1cccc(Cl)c1-c1cc(-c2cccc(NC(=O)C(Cl)Cl)c2)on1)C1CCN(S(C)(=O)=O)CC1 [Compound 583] | < 10 |
| O=C(Nc1cccc(-c2cc(-c3ccccc3N3CCOCC3)no2)c1)C(Cl)Cl [Compound 612] | < 10 |
| O=C(Nc1cccc(-c2cc(-c3c(Cl)cccc3N3CCN(C(=O)C4CCCCN4)CC3)no2)c1)C(Cl)Cl (centres unmarked) [Compound 666] | < 10 |
| CN(C)C1CCN(c2cccc(Cl)c2-c2cc(-c3cccc(NC(=O)C(Cl)Cl)c3)on2)C1 (racemic) [Compound 132, (±)-2,2-Dichloro-N-[3-[3-[2-chloro-6-(3-dimethylamino-N-pyrrolidino)phenyl]-5-isoxazolyl]-phenyl]Acetamide] | < 10 |
| O=C(Nc1cccc(-c2cc(-c3c(Cl)cccc3N3CCN(c4ccccn4)CC3)no2)c1)C(Cl)Cl [Compound 501] | < 10 |
| O=C(Nc1cccc(-c2cc(-c3c(Cl)cccc3N3CCN(C(=O)c4c[nH]cn4)CC3)no2)c1)C(Cl)Cl [Compound 539] | < 10 |
| O=C(Nc1cccc(-c2cc(-c3c(Cl)cccc3N3CCN(c4cccc(Cl)c4)CC3)no2)c1)C(Cl)Cl [Compound 620] | < 10 |
| CC(C)(C)OC(=O)COc1cccc(Cl)c1-c1cc(-c2cccc(NC(=O)C(Cl)Cl)c2)on1 [Compound 678] | > 10 |
| CC(=O)N1CCN(c2cccc(Cl)c2-c2cc(-c3cccc(NC(=O)C(Cl)Cl)c3)on2)CC1 [Compound 617] | < 10 |
| N#Cc1cccc(F)c1-c1cc(-c2cccc(NC(=O)C(Cl)Cl)c2)on1 [Compound 613] | < 10 |
| O=C(Nc1cccc(-c2cc(-c3c(Cl)cccc3N3CCN(C(=O)c4ccco4)CC3)no2)c1)C(Cl)Cl [Compound 519] | < 10 |
| CN(C)C(=O)NC1CCN(c2cccc(Cl)c2-c2cc(-c3cccc(NC(=O)C(Cl)Cl)c3)on2)C1 (centres unmarked) [Compound 574] | < 10 |
| O=C(Nc1cccc(-c2cc(-c3c(Cl)cccc3N3CCN(CC(=O)N4CCOCC4)CC3)no2)c1)C(Cl)Cl [Compound 631] | < 10 |
| CC(C)(C)OC(=O)N1CCCCC1C(=O)N1CCN(c2cccc(Cl)c2-c2cc(-c3cccc(NC(=O)C(Cl)Cl)c3)on2)CC1 (centres unmarked) [Compound 656] | < 10 |
| COC(=O)C1CC(Oc2cccc(Cl)c2-c2cc(-c3cccc(NC(=O)C(Cl)Cl)c3)on2)CN1 (centres unmarked) [Compound 591] | < 10 |
| COc1ccc(C(=O)N2CCN(c3cccc(Cl)c3-c3cc(-c4cccc(NC(=O)C(Cl)Cl)c4)on3)CC2)cc1 [Compound 664] | < 10 |
| CN(c1cccc(Cl)c1-c1cc(-c2cccc(NC(=O)C(Cl)Cl)c2)on1)C1CCNCC1 [Compound 581] | < 10 |
| O=C(Nc1cccc(Cl)c1-c1cc(-c2cccc(NC(=O)C(Cl)Cl)c2)on1)c1cccnc1 [Compound 562] | < 10 |
| O=C(Nc1cccc(-c2cc(-c3c(Cl)cccc3OP(=O)(O)O)no2)c1)C(Cl)Cl [Compound 603] | < 10 |
| CCCCNC(=O)Nc1cccc(Cl)c1-c1cc(-c2cccc(NC(=O)C(Cl)Cl)c2)on1 [Compound 669] | < 10 |
| CC(C)(C)OC(=O)N1CCC(Oc2cccc(Cl)c2-c2cc(-c3cccc(NC(=O)C(Cl)Cl)c3)on2)CC1 [Compound 568] | < 10 |
| O=C(Nc1cccc(-c2cc(-c3c(Cl)cccc3N3CCN(C(=O)c4cccc([N+](=O)[O-])c4)CC3)no2)c1)C(Cl)Cl [Compound 660] | < 10 |
